Our source for the Kd values is publication PMC9503767, “Site-Differentiated Iron–Sulfur Cluster Ligation Affects Flavin-Based Electron Bifurcation Activity” (Metabolites, 2022).

This experiment addresses T1, NfnL (large subunit of NADH-dependent reduced-ferredoxin: NADP+ oxidoreductase NfnSL) (Pyrococcus furiosus, UniProt Q8U195, E126C).
T1 construct: gene sudA; isolated NfnL subunit
Put plainly: intrinsic protein fluorescence quenching titration (ex […] nm, em […] nm), quadratic tight-binding fit.

Structures are written as SMILES.

T1 sequence (Q8U195 whole entry E126C): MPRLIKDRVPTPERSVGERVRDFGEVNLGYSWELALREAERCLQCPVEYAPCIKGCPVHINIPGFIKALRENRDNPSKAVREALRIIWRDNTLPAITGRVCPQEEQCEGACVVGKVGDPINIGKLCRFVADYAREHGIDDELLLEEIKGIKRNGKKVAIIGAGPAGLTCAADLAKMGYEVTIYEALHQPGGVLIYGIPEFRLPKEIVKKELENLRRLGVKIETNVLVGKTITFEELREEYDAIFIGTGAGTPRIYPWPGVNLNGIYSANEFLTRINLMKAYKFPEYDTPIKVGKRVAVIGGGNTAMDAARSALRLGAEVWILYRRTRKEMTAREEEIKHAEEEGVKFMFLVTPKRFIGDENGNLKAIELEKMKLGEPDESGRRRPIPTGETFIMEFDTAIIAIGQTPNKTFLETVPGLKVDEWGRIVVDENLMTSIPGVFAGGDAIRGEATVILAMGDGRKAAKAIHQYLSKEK

Usually Kd stands for the free concentration of one partner at which half of the binding sites on the other are occupied at equilibrium, for simple one-to-one binding. Lower therefore signals a tighter complex. Consider `NC(=O)c1ccc[n+]([C@@H]2O[C@H](COP(=O)([O-])OP(=O)(O)OC[C@H]3O[C@@H](n4cnc5c(N)ncnc54)[C@H](OP(=O)(O)O)[C@@H]3O)[C@@H](O)[C@H]2O)c1` [NADP+], for which binding was put at a Kd of 2600 ± 600 nM.
In turn, `NC(=O)C1=CN([C@@H]2O[C@H](COP(=O)(O)OP(=O)(O)OC[C@H]3O[C@@H](n4cnc5c(N)ncnc54)[C@H](OP(=O)(O)O)[C@@H]3O)[C@@H](O)[C@H]2O)C=CC1` [NADPH] registered a Kd of 2600 ± 600 nM.
